{"source": "patent US20180333399A1", "about": "“METHOD OF IMPROVING LIVER FUNCTION” (NAIA METABOLIC, INC., priority 2012, published 2018)", "key": {"type 2 diabetes patients": {"test_system": "type 2 diabetes patients", "experiment": "24 week randomised, placebo-controlled double-blind clinical trial: blood ALT levels", "type": "in vivo, human", "details": "for ΔALT Week 12, Mean ± SD / ΔALT Week 12, Median (range): change from baseline (Day 0) to Week 12; for ΔALT Week 12, Mean ± SD / ΔALT Week 12, Median (range) / ΔALT Week 24, Mean ± SD / ΔALT Week 24, Median (range): 40 mg b.i.d.; for ΔALT Week 24, Mean ± SD / ΔALT Week 24, Median (range): change from baseline (Day 0) to Week 24; for ΔALT Week 12, MTZ-Placebo / ΔALT Week 24, MTZ-Placebo: difference of mean ΔALT versus matching placebo group", "from_the_text": "The primary efficacy endpoint for the clinical trial was a reduction in HbA1c (ΔHbA1c) from baseline with methazolamide, relative to placebo, after 24 weeks of treatment. The primary safety measurement was the effect of methazolamide, compared to placebo, on venous blood gas parameters; a measure of acidosis. The clinical trial initially enrolled type 2 diabetes patients who were not treated with any anti-diabetic agent prior to entry into the trial. […] The metformin dose was not altered throughout the trial. Participant baseline demographic data are provided in Table 1-1, Participants randomized into the clinical trial were administered either daily doses of methazolamide (40 mg b.i.d.) or placebo for 24 weeks. Methazolamide was taken as 1×30 mg capsule and 1×10 mg capsule per dose at breakfast and dinner. Placebo (microcrystalline cellulose) was administered in identical presentation. […] Mean ALT levels over time are depicted in FIGS. 1(A) and 1(B)."}, "db/db mice [1]": {"test_system": "db/db mice", "experiment": "Fasting blood glucose in db/db mice, 9 days oral gavage", "type": "in vivo", "method": "(§1) All reagents were purchased from Sigma-Aldrich (Australia). Dosing solutions of methazolamide were prepared fresh daily in sterile saline:PEG400 at 65:35 (v/v), protected from light and stored at room temperature. Male db/db mice (Animal Resource Centre, Australia) were housed with free access to water and food (standard rodent diet: Barastoc Rat & Mouse, Ridley Agriproducts, Australia). Room temperature was maintained at 21±2° C., humidity 40-70%, with a 12 h light/dark cycle. Mice were treated with methazolamide (50 mg/kg/day) or vehicle (n=4 per group) by single oral gavage doses each day for 9 days.\n(§2) Daily blood samples were obtained from the tail tip of each mouse and glucose levels measured using a glucometer (AccuCheck II; Roche, Australia). At the end of the study, the animals were humanely killed and a portion of liver tissue (left lobe) was removed and fixed in 10% neutral-buffered formalin. The liver tissue was paraffin-embedded, sectioned (5 μm), mounted and stained with hematoxylin and eosin."}, "db/db mice [2]": {"test_system": "db/db mice", "experiment": "Liver histology (hematoxylin and eosin) in db/db mice", "type": "in vivo", "details": "after 9 days, 50 mg/kg/day; 3 of the 4 vehicle-treated animals had a high degree of hepatic steatosis", "method": "as §1, §2"}, "db/db mice [3]": {"test_system": "db/db mice", "experiment": "Hepatic lipid content (modified Folch extraction) in db/db mice", "type": "in vivo", "method": "as §1\nA separate portion of the liver (right lobe) was used to measure hepatic lipid content. Lipid was extracted using a modified Folch protocol. The tissue was homogenised in 2:1 chloroform/methanol solution (10 ml), and filtered into a […] glass centrifuge tube. An additional 5 ml of 2:1 chloroform/methanol solution was added, followed by 2.5 ml of 0.9% NaCl. After thorough mixing, the extract was centrifuged for 5 min at 2,000 g at 10° C. After discarding the aqueous layer, the organic layer was dried under nitrogen, and total lipid content was assessed by weighing."}, "[4]": {"details": "Week 12, methazolamide 40 mg b.i.d., listed as All MTZ (Alone + Met)"}, "[5]": {"details": "methazolamide 40 mg b.i.d., listed as All MTZ (Alone + Met)"}, "[6]": {"details": "methazolamide 40 mg b.i.d., listed as MTZ Alone"}, "[7]": {"details": "baseline (Day 0), before treatment, type 2 diabetes patients, listed as MTZ Alone"}, "[8]": {"details": "listed as All MTZ (Alone + Met)"}}, "note": "Marks after values point to notes of the source that are not given here."}
{"smiles": "CC(=O)/N=c1/sc(S(N)(=O)=O)nn1C", "note": "[methazolamide]", "values": [{"measurement": "ALT Week 12, Mean ± SD", "setting": "type 2 diabetes patients; [4]", "value": "20.9 ± 9.8", "unit": "U/L"}, {"measurement": "ALT Week 12, Median (range)", "setting": "type 2 diabetes patients; [4]", "value": "19 (8-50) U/L"}, {"measurement": "ALT Week 12, Mean ± SD", "setting": "type 2 diabetes patients; Week 12, methazolamide 40 mg b.i.d., listed as MTZ Alone", "value": "22.1 ± 10.1", "unit": "U/L"}, {"measurement": "ALT Week 24, Mean ± SD", "setting": "type 2 diabetes patients; [5]", "value": "21.3 ± 12.3", "unit": "U/L"}, {"measurement": "ALT Week 24, Median (range)", "setting": "type 2 diabetes patients; [5]", "value": "20 (7-64) U/L"}, {"measurement": "ALT Week 24, Mean ± SD", "setting": "type 2 diabetes patients; [6]", "value": "22.0 ± 12.6", "unit": "U/L"}, {"measurement": "ALT Week 24, Median (range)", "setting": "type 2 diabetes patients; [6]", "value": "17 (9-49) U/L"}, {"measurement": "ALT Day 0, Median (range)", "setting": "type 2 diabetes patients; baseline (Day 0), before treatment, type 2 diabetes patients, listed as All MTZ (Alone + Met)", "value": "27.5 (16-83) U/L"}, {"measurement": "ALT Day 0, Mean ± SD", "setting": "type 2 diabetes patients; [7]", "value": "33.1 ± 16.9", "unit": "U/L"}, {"measurement": "ALT Day 0, Median (range)", "setting": "type 2 diabetes patients; [7]", "value": "29 (16-83) U/L"}, {"measurement": "ΔALT Week 12, Mean ± SD", "setting": "type 2 diabetes patients; [8]", "value": "−10.9 ± 7.7"}, {"measurement": "ΔALT Week 12, Median (range)", "setting": "type 2 diabetes patients; [8]", "value": "−9 (−40, −2)"}, {"measurement": "ΔALT Week 12, Mean ± SD", "setting": "type 2 diabetes patients; listed as MTZ Alone", "value": "−10.4 ± 9.3"}, {"measurement": "ΔALT Week 12, Median (range)", "setting": "type 2 diabetes patients; listed as MTZ Alone", "value": "−8.5 (−40, −4)"}, {"measurement": "ΔALT Week 24, Mean ± SD", "setting": "type 2 diabetes patients; [8]", "value": "−10.7 ± 8.2"}, {"measurement": "ΔALT Week 24, Median (range)", "setting": "type 2 diabetes patients; [8]", "value": "−8.5 (−34, +4)"}, {"measurement": "ΔALT Week 24, Mean ± SD", "setting": "type 2 diabetes patients; listed as MTZ Alone", "value": "−11.0 ± 8.1"}, {"measurement": "ΔALT Week 24, Median (range)", "setting": "type 2 diabetes patients; listed as MTZ Alone", "value": "−8 (−34, −3)"}, {"measurement": "ΔALT Week 12, MTZ-Placebo", "setting": "type 2 diabetes patients; Week 12, listed as All MTZ (Alone + Met)", "value": "−14.8*^§"}, {"measurement": "ΔALT Week 12, MTZ-Placebo", "setting": "type 2 diabetes patients; Week 12, listed as MTZ Alone", "value": "−18.1"}, {"measurement": "ΔALT Week 24, MTZ-Placebo", "setting": "type 2 diabetes patients; [8]", "value": "−9.3^†§"}, {"measurement": "ΔALT Week 24, MTZ-Placebo", "setting": "type 2 diabetes patients; listed as MTZ Alone", "value": "−8.0"}, {"measurement": "time of treatment after which reduction in blood ALT levels was evident", "setting": "type 2 diabetes patients; patients treated with methazolamide", "value": 1, "unit": "week"}, {"measurement": "time of treatment after which reduced ALT level reached a plateau", "setting": "type 2 diabetes patients; plateau maintained for the remainder of the 24 week treatment period", "value": 2, "unit": "weeks"}, {"measurement": "Fasting Blood Glucose, Day 0", "setting": "db/db mice [1]; Day 0 (baseline), male db/db mice, n=4", "value": "26.0 ± 1.2", "unit": "mM"}, {"measurement": "Fasting Blood Glucose, Day 9", "setting": "db/db mice [1]; Day 9, 50 mg/kg/day oral gavage, p < 0.05 vs Day 0", "value": "13.7 ± 2.4", "unit": "mM"}, {"measurement": "reduction of fasting blood glucose levels relative to vehicle treated-controls", "setting": "db/db mice [1]; db/db mice, 50 mg/kg/day, 9 days", "value": 47, "unit": "%"}, {"measurement": "treated db/db mice that appeared to have greatly reduced hepatic steatosis (liver histology)", "setting": "db/db mice [2]", "value": "2 of the 4"}, {"measurement": "Liver lipid content (% of liver weight), Day 9", "setting": "db/db mice [3]; Day 9, 50 mg/kg/day oral gavage, p < 0.05 vs vehicle", "value": "7.4 ± 1.2", "unit": "%"}, {"measurement": "liver lipid content (w/w) lower compared to vehicle treated controls", "setting": "db/db mice [3]; after 9 days of treatment, db/db mice", "value": 48, "unit": "%"}]}
